Assay results reported in patent US7811820B2, “Smooth muscle cell differentiation with CRP, SRF and GATA factors” (Baylor College of Medicine, priority 2003, dated 2010).
Entries after “also recorded” stand apart in the source; their conditions may differ.

How the values were obtained:
Type in all cases: cell-based, monkey
SMA promoter = assay: SMA-luciferase reporter transactivation assay in CV1 cells; conditions: CV1 cells cotransfected with CRP2, SRF and GATA6, drug added 12 h after cotransfection, lysates 6-24 h post-drug
SM22α promoter = SM22α promoter luciferase reporter assay in CV1 cells
[1] = tested on: CRP2 nuclear localization in CV1 cells; assay: Indirect immunofluorescence of V5 epitope-tagged CRP2 localization in transfected CV1 cells; conditions: for CRP2 accumulation in the nucleus: after one hour of treatment; for CRP2 accumulation / localization in the nucleus: summary statement, no concentration given; for Nuclear localization of epitope-tagged CRP2: cytochalasin D 5 μg/ml, latrunculin B not shown
Method: (§1) FIGS. 9A-9B show signaling mechanisms involved in CRP2 nuclear localization. In FIG. 9A, there is indirect immunofluorescent analysis of V5 epitope-tagged CRP2 (green) in CV1 cells. Untreated control CV1 cells show global localization of CRP2. […] Fold-activation was determined by comparison to the transfection with empty expression vector in lane 1.
In CV1 fibroblasts, overexpressed wild type CRP2 localizes both in the nucleus and in the cytoplasmic compartments, similar to the subcellular distribution pattern of endogenous CRP2 (Chang et al., 2003). When NLS- or NES-tag is added, the fusion CRP2-NLS or CRP2-NES protein becomes over 90% nuclear- or cytoplasmic-exclusive localized, respectively (FIG. 8A). These reagents allow functional analyses to differentiate nuclear versus cytoplasmic functions of CRP2. […] Nuclear distribution of CRP2 is coincident with reporter gene activation.
(§2) To elucidate the mechanism controlling CRP2 shuttling, the inventors treated transiently transfected monkey CV1 fibroblasts with drugs that either affect cytoskeletal integrity ([…], cytochalasin D, latrunculin B) or are inhibitors of nuclear export (leptomycin B) and looked for changes in the distribution of CRP2.

actin cytoskeleton = assay: Actin cytoskeleton integrity in CV1 cells (rhodamine phalloidin)
Method: as §1, §2

SMILES	SMA gene activation / SMA-Luc reporter activity after drug treatment (SMA promoter)	SMA gene activation / SMA-Luc reporter activity after drug treatment (SMA promoter; listed as Y-26732)	SM22α promoter activity after drug treatment (SM22α promoter)	cells with CRP2 nuclear localization ([1]; 10 μM in growth medium of transfected CV1 fibroblasts)	CRP2 accumulation in the nucleus [1]	CRP2 accumulation / localization in the nucleus [1]	dissolution of the actin cytoskeleton (actin cytoskeleton)	Nuclear localization of epitope-tagged CRP2 [1]	transfected CV1 cells displaying CRP2 accumulation in the nucleus ([1]; 2 hr of 10 μg/ml treatment)
C[C@@H](N)[C@H]1CC[C@H](C(=O)Nc2ccncc2)CC1 [Y-27632]	further upregulates; also recorded: further up-regulated	increases	further up-regulated	68%	accumulate in the nucleus	facilitated CRP2 nuclear localization			
C=C1[C@@H](C)[C@H]2[C@H](Cc3ccccc3)NC(=O)[C@]23[C@H](OC(C)=O)/C=C/[C@@](C)(O)C(=O)[C@@H](C)C/C=C/[C@H]3[C@@H]1O [cytochalasin D]					accumulate in the nucleus		completely dissolved the actin cytoskeleton within one hour	observed	
C/C1=C/C(=O)O[C@@H]2C[C@@H](CC[C@H](C)/C=C\CC1)O[C@@](O)([C@@H]1CSC(=O)N1)C2 [latrunculin B]							completely dissolved the actin cytoskeleton within one hour	observed	
CCC(=C/[C@H](C)C/C=C/C(C)=C/[C@@H](C)C(=O)[C@@H](C)[C@H](O)[C@@H](C)C/C(C)=C/C(=O)O)/C=C/[C@@H]1OC(=O)C=C[C@@H]1C [leptomycin B]					accumulate in the nucleus	induced CRP2 accumulation in the nucleus			82%
